# Article PMC7917437 (Journal of Medicinal Chemistry, 2021)
# Key:
# LPS-induced mouse model = LPS-induced mouse model ref 38; cited from earlier work
# CYP2B6 = experiment: CYP induction, mRNA by qRT-PCR in cultured human hepatocytes; format: in vitro ADME; conditions: up to 30 μM, i.e., < 2-fold change and/or <20% of the positive control
# [1] = system: mouse, rat, monkey, and human hepatocyte incubations; experiment: In vitro metabolism in hepatocyte incubations; format: in vitro ADME; conditions: HPLC and mass spectrometry
# clinical = conditions: both, human, plasma, oral
# [2] = system: chronic constriction injury model of neuropathy; experiment: Chronic constriction injury model of neuropathy, von Frey assay; format: in vivo, male SD rats; conditions: AUC over 6 h post dose
# [3] = Phase 1a single ascending dose study in healthy volunteers
# laminitis = conditions: cited from earlier work
Compound,neuroinflammation in the CNS (LPS-induced mouse model),effect on CYP2B6 mRNA levels (CYP2B6),putative metabolites detected [1],half-life (clinical),"efficacy compared with pregabalin ([2]; at 10–20 fold lower doses, vs pregabalin (30 mg/kg) p = 0.039)","pain measured with a von Frey assay (mechanical withdrawal thresholds) ([2]; male SD rats, oral gavage, 3 mg/kg, vs PEG 300 p ≤ 0.001)",effective total AUC for a daily dosing regimen ([3]; calculated),"absorption ([3]; human, single oral doses)",outcome in a laminitic horse scheduled for euthanasia (laminitis; after 5 days of treatment ref 49),"adverse effects from clinical exams and blood work (laminitis; horse, five-day treatment, once daily 0.1 mg/kg ref 49)",outcome in seven other laminitic horses (laminitis; when all other treatments failed ref 50)
"CC[C@H](C)C(=O)N1CCC(NC(=O)Nc2ccc(OC(F)(F)F)c(F)c2)CC1 [EC5026, (S)-1-(3-Fluoro-4-(trifluoromethoxy)phenyl)-3-(1-(2-methylbutanoyl)piperidin-4-yl)urea]",prevent neuroinflammation,little or no effect,seven,42 to 59 h,superior to pregabalin,blocked pain,6 ng·h/mL,well absorbed with linear dose-proportionality,,,
"O=C(Nc1ccc(OC(F)(F)F)cc1)N[C@H]1CC[C@H](Oc2ccc(C(=O)O)cc2)CC1 [t-TUCB, trans-4-{4-[3-(4-trifluoromethoxy-phenyl)-ureido]-cyclohexyloxy}-benzoic acid]",,,,,,,,,complete recovery with no recurrent laminitis,no signs of adverse effects,showed improvement in disease
